Measurements reported in patent US7135590B2, “Gallic acid derivative and process of preparing the same” (Council of Scientific and Industrial Research, priority 2003, dated 2006).

Key:
[1] = system: Mentha arvensis; assay: Growth promoting activity with Mentha arvensis internode explants; assay type: in vivo
Procedure: To confirm the growth promoting activity of methanone-(3′,4′,5′-trimethoxy) phenyl, 1-naphthyl, 2-O-4″-ethyl but-2″-enoate, it was tested with a medicinal and aromatic plant species Mentha arvensis. The explants used were 0.5 cm long pieces of the second and third internodes of the shoots formed from axillary buds and culture. The internode segments were inoculated in MS basal media (Murashige and Skoog, 1962, Physiol. Planta. 15: pp. 473 to 497) containing vitamins 100 μg/ml, myo-inositol 3%, w/v, sucrose 1.5% w/v, Agar and different concentrations of auxins and cytokinin. Different concentrations of 1-naphthalene acetic acid (NM) (0.0, 0.2, 2.0 μg/ml) were used in combination with different concentrations of 6 benzyl amino purine (BAP) (0, 10 & 5 μg/ml). On each kind of media […] of the explants were inoculated into three petriplates with each plates containing 4 explants. Compound 1 was serially replaced with each concentration of NM and BAP individually to observe its growth promoting activity. The experiment was arranged in the form of a completely randomized design (CRD).
Cultures were maintained at 25±2° C. and 400 to 600 lux light intensity with 16 h photoperiod. The response of explants was recorded every 24 h over 4 week periods. […] The proportional increase in biomass was recorded by taking the fresh weight of the growing tissue during sub culturing and dividing the increase with the initial weight.
At the end of 12 weeks from inoculation the shoots were separated and individually transferred to MS basal media containing vitamins for rooting. The rooted plantlets were subsequently transferred to pods in a green house.
The basal medium for studying the response was MS 0 (Murashige and Skoog, 1962, Physiol. Planta. 15: pp. 473 to 497) supplemented with 0.2 mg/L IAA (indole acetic acid) and 5 mg/L BAP (benzene amino purine).
The basal medium for studying the response was MS 0 (Murashige and Skoog, 1962, Physiol. Planta. 15: pp. 473 to 497) supplemented with 2mg/L IAA (indole acetic acid) and 10 mg/L BAP (benzene amino purine).

[2] = system: Bacopa monnieri; assay: Growth promoting activity using Bacopa sensor system; assay type: in vivo
Procedure: For testing the growth promoting effect of methanone-(3′,4′,5′-trimethoxy) phenyl, 1-naphthyl, 2-O-4″-ethyl but-2″-enoate, the compounds was dissolved in DMSO and added into the medium at 1.0 μg/ml. Only solvent was used as a control in the experiment for comparison. A fast propagating strain of Bacopa monnieri developed as a biosensor system through tissue culture at CIMAP (Khanuja et al., 2001, J Environa Pathol, Toxicol and Onco (JEPTO), 20:pp. 15 to 22) was used in the tests. The MS basal medium (Murashige and Skoog, 1962, Physiol. Planta. 15: pp. 473 to 497) supplemented with test compounds was used in the assays. Measured 0.5 to 1.0 ml medium was poured into 1.5 ml graduated microcentrifuge tubes. Twig cuttings of 2.5 cm were inoculated in 10 replicates for each treatment. These inoculated tubes were put into a half transparent desiccator allowing air passage through sterile cotton plugs fixed on opening vent. The tubes were placed such that the medium-containing portion of the tubes where roots would be initiating is inserted in to the holes of the stand made from a thermocol sheet. These desiccators were incubated at normal ambient temperature of 25 to 28° C. with 14 hours light and 10 hours dark cycle. The root initiation, shoot elongation, callus induction, shoot proliferation and wilting was recorded from day 2 to 14 every 24 hours.

CCOC(=O)C=CCOc1ccc2ccccc2c1C(=O)c1cc(OC)c(OC)c(OC)c1 [Compound 1, methanone-(3′,4′,5′-trimethoxy) phenyl, 1-naphthyl 2-O-4″-ethyl but-2″-enoate]
Number of shoots observed after three weeks ([1]; Medium A2 with IAA replaced: BAP 5.0, Compound 1 0.2, no roots): 1–2 shoots shoots per explant | Number of shoots observed after three weeks ([1]; Medium A3 with IAA replaced: BAP 10.0, Compound 1 2.0, single root in one replication): 3–4 shoots shoots per explant | shoots produced ([1]; within three weeks in medium A3): 3 to 4 shoots | Shoot Elongation ([2]; 1.0 μg/ml in MS basal medium, 2.5 cm twig cuttings, 10 replicates, recorded day 2 to 14, control 1.0): 1.6 cms | Browning Yellowing Death ([2]; 1.0 μg/ml in MS basal medium, twig cuttings, day 2 to 14): Nil | Root Elongation ([2]; 1.0 μg/ml in MS basal medium, twig cuttings, day 2 to 14, control 0.8): 0.8 cms | Branching ([2]; 1.0 μg/ml in MS basal medium, twig cuttings, day 2 to 14, control 2.0): 2.0 nos | Number of Roots ([2]; 1.0 μg/ml in MS basal medium, twig cuttings, day 2 to 14, control 2 + 2): 2 + 2 nos | Number of Leaves ([2]; 1.0 μg/ml in MS basal medium, twig cuttings, day 2 to 14, control 5.0): 11.0 nos | enhances the shoot elongation ([2]; within 15 days): about 1.6 cm
